In series [1] the target is Acyl-homoserine lactone acylase PvdQ (Pseudomonas aeruginosa (strain LESB58), UniProt Q9I194). The experiment in a line: P. aeruginosa PvdQ acylase inhibitors, dose response, biochemical, fluorescence, plate reader and imaging, cherry-picks (AID 493231).
A further series deals with HeLa. The experiment in a line: HeLa cell cytotoxicity, dose response, cytotoxicity control, 48 h, plate reader, cherry-picks (AID 504942). To be noted: Homo sapiens. It counts as functional, cell-based.
Another series has as its target Melanocortin receptor 4 (Homo sapiens, UniProt P32245). It counts as functional, cell-based.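 Note: Cell-based assay with luminescence read-out, confirmatory dose-response testing for agonist activity of biased ligands at MC4R; human U2OS cells with tagged receptor and beta-arrestin; potency of agonists that increase receptor coupling to beta-arrestin.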
The target in another series is Cytochrome P450 2C19 (Homo sapiens, UniProt P33261). The experiment in a line: Cytochrome panel assay with activity outcomes. Panel member name: p450-cyp2c19 Compounds with AC50 equal or less than 10 uM are considered active. It counts as functional. The note with it: read-out: AC50.
Chain of Cytochrome P450 2C19 (P33261 whole entry): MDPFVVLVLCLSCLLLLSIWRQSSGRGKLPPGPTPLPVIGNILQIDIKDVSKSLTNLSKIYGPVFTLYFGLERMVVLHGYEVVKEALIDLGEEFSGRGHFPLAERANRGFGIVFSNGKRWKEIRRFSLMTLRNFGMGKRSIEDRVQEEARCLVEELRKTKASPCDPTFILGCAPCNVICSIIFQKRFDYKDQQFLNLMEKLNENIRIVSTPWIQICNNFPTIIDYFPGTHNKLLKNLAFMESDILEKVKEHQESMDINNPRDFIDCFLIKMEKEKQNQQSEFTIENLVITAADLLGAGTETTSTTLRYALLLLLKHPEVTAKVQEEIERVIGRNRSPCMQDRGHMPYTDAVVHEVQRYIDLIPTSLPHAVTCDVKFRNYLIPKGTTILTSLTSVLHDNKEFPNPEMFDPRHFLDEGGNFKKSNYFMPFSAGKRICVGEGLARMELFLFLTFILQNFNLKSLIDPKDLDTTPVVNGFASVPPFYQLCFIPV
For another series, the target named is Cytochrome P450 3A4 (Homo sapiens, UniProt P08684).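 Note: CYP3A4 tested as one member of a cytochrome P450 panel screen.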
Chain of Cytochrome P450 3A4 (P08684 whole entry): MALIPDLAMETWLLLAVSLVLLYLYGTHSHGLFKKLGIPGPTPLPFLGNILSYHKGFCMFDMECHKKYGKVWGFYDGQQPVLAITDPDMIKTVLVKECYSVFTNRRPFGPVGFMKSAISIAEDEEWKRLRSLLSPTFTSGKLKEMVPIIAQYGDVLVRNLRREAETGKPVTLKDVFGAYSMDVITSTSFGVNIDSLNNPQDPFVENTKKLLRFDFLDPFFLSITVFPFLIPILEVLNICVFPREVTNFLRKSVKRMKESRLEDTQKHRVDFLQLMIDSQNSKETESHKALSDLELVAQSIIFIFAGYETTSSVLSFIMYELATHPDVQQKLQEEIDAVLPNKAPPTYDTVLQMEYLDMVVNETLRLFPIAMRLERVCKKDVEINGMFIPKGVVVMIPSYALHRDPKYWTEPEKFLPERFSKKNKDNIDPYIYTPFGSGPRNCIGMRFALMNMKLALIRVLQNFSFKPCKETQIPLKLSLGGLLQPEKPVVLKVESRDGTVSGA
Another series has as its system Jurkat. As to the kind of experiment: antigen receptor-induced NF-kB inhibitors, dose response, Jurkat, luciferase reporter, luminescence, B- and T-cell (AID 489004).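 Note: NF-kB luciferase reporter Jurkat cells stimulated with PMA plus ionomycin.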 The format is functional, cell-based. To be noted: Homo sapiens.
Series [2] can be described thus: cytotoxicity in HEK-293T NF-kB-Luc cells, dose response, cytotoxicity control for B/T-cell NF-kB inhibitor project, cell-based, uHTS hits (AID 489019).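 Note: IC50 reflects cytotoxicity as loss of cell viability.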 It counts as functional.
Series [3] has as its system BJ. As to the kind of experiment: cytotoxicity toward BJ-TERT fibroblasts, dose response, cell-based, RAS-independent, luminescence (AID 1933). The format is functional. The note with it: Homo sapiens.
A further series has as its target Beta-galactosidase (Escherichia coli, UniProt Q8VNN2). As to the kind of experiment: PubChem AID 485352. It counts as functional.
For series [4], the system named is BJ. As to the kind of experiment: cells. It counts as functional, cell-based. To be noted: Homo sapiens.
For series [5], the target named is T1, Type-1 angiotensin II receptor (Homo sapiens, UniProt P30556).
T1 sequence (P30556 whole entry): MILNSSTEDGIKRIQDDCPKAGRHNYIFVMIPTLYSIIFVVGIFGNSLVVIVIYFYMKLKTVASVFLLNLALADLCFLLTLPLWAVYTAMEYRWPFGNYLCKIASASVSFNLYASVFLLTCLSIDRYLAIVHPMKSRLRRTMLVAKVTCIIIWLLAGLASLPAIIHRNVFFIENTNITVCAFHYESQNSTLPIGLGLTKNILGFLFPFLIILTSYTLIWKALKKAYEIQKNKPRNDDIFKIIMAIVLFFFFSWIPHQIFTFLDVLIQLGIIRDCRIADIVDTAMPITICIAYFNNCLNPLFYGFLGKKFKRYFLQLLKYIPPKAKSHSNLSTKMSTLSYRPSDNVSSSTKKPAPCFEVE
As to the kind of experiment: AT1 receptor antagonists, dose response, selectivity assay for APJ receptor antagonist project, cell-based, uHTS hits (AID 463214).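 Note: antagonist potency against angiotensin II stimulated AT1 response.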 It counts as functional.

The subject of series [6] is BJ. As to the kind of experiment: cytotoxicity toward BJ-TERT-LT-ST fibroblasts, dose response, cell-based, RAS-independent, luminescence (AID 1935).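 Note: BJ fibroblasts immortalized with TERT plus LT and ST oncogenes.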 The format is functional. The note with it: Homo sapiens.
A short description of series [7]: cytotoxicity toward DRD oncogenic fibroblasts, dose response, cell-based, non-viral oncogenic, luminescence (AID 1934). The format is functional. To be noted: Homo sapiens.
Series [8] concerns the target G-protein coupled receptor 55 (Homo sapiens, UniProt Q9Y2T6). The experiment in a line: GPR55 agonists via beta-arrestin recruitment, primary screen, imaging, U2OS cells, beta-arrestin-GFP redistribution (AID 1961). It counts as functional. A general note: Activated receptors often draw arrestin, which recruitment assays turn into a signal.
Series [9] has as its target Intestinal-type alkaline phosphatase (Mus musculus, UniProt P24822). The experiment in a line: PubChem AID 488874. The format is functional.
The target in series [10] is T2, Intestinal-type alkaline phosphatase (Homo sapiens, UniProt P09923). The experiment in a line: human IAP inhibitors, dose response, biochemical, luminescent, uHTS hits, set 2 (AID 488793). It counts as functional.
T2 sequence (P09923 whole entry): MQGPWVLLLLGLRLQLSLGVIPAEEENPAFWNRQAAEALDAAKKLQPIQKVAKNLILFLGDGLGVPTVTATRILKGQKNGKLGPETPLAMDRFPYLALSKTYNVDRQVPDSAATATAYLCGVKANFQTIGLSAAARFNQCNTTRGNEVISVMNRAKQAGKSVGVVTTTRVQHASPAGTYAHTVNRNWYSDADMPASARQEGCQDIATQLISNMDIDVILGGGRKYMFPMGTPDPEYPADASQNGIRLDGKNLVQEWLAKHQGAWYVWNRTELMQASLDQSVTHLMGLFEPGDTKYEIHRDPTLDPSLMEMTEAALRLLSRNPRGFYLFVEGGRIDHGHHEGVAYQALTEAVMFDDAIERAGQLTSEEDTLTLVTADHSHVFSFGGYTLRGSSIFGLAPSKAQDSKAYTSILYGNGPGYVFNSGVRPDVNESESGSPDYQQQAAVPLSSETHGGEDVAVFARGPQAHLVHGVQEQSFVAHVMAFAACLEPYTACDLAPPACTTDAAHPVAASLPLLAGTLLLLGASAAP
Series [11] has as its target T2, Intestinal-type alkaline phosphatase. The experiment in a line: Dose Response confirmation of uHTS hits from a small molecule inhibitors of human intestinal alkaline phosphatase via a luminescent assay. [Related pubchem assays (depositor defined):AID2544, AID2574]. The format is functional.
Series [12] concerns the target T3, Alkaline phosphatase, tissue-nonspecific isozyme (Homo sapiens, UniProt P05186).
T3 sequence (P05186 whole entry): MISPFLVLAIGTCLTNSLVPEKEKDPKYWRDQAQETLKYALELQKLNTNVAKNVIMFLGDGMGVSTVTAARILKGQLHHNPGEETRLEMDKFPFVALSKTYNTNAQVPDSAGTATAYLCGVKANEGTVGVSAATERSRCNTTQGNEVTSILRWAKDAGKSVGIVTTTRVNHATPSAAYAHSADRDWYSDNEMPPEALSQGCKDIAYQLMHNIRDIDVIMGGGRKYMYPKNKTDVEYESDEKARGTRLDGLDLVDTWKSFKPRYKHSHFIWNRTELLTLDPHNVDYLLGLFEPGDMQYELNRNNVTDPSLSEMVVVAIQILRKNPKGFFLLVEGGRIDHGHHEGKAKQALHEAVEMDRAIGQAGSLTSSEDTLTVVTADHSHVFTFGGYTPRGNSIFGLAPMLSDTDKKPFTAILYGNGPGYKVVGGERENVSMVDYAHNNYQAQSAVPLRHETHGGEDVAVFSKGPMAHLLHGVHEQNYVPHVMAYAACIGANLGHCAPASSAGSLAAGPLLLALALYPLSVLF
As to the kind of experiment: inhibition of tissue-nonspecific alkaline phosphatase – biochemical, dose response (AID 488882). The format is functional.

Another series deals with Keap1/Nrf2 (Homo sapiens, UniProt Q14145). As to the kind of experiment: Keap1-Nrf2 protein-protein interaction inhibitors, dose response, biochemical, fluorescence polarization, cherry-picked samples (AID 588683). Background: Fluorescence polarisation rises when a labelled molecule tumbles more slowly, as on binding a larger partner.
For series [13], the target named is T4, Tyrosine-protein phosphatase non-receptor type 7 (Homo sapiens, UniProt P35236).
T4 sequence (P35236 whole entry): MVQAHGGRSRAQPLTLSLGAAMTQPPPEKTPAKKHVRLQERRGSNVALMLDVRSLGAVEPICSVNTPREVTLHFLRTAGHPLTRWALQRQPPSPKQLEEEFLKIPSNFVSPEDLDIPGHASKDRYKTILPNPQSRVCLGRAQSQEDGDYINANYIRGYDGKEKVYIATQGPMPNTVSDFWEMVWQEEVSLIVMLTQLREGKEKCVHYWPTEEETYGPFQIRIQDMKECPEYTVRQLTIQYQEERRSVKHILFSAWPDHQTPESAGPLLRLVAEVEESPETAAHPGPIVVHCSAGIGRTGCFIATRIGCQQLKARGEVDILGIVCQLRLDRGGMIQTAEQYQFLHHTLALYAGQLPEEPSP
It counts as functional.

The target in series [14] is Glyceraldehyde-3-phosphate dehydrogenase (Homo sapiens, UniProt P04406).
Chain of Glyceraldehyde-3-phosphate dehydrogenase (P04406 whole entry): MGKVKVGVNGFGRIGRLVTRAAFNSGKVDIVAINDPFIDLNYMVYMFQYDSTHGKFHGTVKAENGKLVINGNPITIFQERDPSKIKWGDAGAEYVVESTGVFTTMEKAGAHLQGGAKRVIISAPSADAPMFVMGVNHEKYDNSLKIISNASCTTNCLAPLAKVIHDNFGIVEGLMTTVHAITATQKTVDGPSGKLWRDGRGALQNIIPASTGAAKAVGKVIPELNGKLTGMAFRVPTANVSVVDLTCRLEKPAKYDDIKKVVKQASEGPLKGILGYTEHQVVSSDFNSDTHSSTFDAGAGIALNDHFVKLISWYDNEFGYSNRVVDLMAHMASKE
For series [15], the target named is T5, Dual specificity protein phosphatase 6 (Rattus norvegicus, UniProt Q64346).
T5 sequence (Q64346 whole entry): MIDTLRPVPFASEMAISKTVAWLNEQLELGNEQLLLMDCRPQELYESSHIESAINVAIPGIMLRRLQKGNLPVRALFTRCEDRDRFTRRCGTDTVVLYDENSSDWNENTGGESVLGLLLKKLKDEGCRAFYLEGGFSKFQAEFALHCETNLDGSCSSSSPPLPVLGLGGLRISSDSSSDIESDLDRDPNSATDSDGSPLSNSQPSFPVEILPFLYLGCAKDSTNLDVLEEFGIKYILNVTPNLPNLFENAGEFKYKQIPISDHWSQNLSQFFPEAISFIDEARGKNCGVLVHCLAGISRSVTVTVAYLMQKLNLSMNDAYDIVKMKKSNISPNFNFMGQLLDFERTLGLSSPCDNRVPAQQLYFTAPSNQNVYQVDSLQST

In series [16] the target is T5, Dual specificity protein phosphatase 6. The format is functional.

The results in this text go back to ChEMBL document CHEMBL1201862, “PubChem BioAssay data set” (2004).

The structures appear in SMILES notation. Activity calls are given as the source filed them.

Chain of Intestinal-type alkaline phosphatase (Mus musculus, UniProt P24822) (P24822 whole entry): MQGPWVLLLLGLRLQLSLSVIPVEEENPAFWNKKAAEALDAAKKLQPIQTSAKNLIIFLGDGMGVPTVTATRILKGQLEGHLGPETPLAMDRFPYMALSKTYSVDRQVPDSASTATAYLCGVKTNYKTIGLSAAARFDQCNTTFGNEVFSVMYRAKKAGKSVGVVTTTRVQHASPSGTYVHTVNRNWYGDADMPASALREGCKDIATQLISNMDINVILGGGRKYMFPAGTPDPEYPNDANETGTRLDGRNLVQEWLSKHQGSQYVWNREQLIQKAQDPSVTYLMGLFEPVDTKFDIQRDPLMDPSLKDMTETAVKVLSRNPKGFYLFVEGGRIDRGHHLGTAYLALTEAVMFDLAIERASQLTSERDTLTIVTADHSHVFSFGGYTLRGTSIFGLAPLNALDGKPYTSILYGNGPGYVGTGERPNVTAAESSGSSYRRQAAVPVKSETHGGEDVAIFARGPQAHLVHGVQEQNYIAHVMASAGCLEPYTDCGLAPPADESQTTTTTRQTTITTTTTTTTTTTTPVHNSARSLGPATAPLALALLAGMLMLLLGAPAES
Chain of Acyl-homoserine lactone acylase PvdQ (Q9I194 24-193 limits assumed): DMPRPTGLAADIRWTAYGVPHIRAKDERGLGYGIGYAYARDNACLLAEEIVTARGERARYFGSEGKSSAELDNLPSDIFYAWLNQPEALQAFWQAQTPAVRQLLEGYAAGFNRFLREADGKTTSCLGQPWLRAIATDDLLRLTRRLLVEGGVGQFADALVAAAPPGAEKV
Chain of Acyl-homoserine lactone acylase PvdQ (Q9I194 217-762 limits assumed): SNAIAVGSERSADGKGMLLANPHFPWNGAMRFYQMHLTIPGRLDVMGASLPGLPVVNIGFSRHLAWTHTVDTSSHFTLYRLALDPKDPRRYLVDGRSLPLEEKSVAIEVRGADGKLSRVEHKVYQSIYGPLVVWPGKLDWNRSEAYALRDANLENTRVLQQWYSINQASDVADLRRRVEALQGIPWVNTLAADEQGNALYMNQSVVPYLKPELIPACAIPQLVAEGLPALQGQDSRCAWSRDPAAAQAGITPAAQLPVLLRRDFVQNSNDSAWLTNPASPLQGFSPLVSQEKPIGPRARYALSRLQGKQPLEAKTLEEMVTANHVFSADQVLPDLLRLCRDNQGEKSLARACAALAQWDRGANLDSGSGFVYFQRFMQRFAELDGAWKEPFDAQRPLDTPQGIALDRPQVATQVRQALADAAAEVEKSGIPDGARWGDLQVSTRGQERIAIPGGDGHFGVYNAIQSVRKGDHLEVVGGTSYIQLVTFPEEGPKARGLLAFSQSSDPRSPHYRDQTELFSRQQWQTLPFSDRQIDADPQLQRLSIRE
Chain of Beta-galactosidase (Q8VNN2 whole entry): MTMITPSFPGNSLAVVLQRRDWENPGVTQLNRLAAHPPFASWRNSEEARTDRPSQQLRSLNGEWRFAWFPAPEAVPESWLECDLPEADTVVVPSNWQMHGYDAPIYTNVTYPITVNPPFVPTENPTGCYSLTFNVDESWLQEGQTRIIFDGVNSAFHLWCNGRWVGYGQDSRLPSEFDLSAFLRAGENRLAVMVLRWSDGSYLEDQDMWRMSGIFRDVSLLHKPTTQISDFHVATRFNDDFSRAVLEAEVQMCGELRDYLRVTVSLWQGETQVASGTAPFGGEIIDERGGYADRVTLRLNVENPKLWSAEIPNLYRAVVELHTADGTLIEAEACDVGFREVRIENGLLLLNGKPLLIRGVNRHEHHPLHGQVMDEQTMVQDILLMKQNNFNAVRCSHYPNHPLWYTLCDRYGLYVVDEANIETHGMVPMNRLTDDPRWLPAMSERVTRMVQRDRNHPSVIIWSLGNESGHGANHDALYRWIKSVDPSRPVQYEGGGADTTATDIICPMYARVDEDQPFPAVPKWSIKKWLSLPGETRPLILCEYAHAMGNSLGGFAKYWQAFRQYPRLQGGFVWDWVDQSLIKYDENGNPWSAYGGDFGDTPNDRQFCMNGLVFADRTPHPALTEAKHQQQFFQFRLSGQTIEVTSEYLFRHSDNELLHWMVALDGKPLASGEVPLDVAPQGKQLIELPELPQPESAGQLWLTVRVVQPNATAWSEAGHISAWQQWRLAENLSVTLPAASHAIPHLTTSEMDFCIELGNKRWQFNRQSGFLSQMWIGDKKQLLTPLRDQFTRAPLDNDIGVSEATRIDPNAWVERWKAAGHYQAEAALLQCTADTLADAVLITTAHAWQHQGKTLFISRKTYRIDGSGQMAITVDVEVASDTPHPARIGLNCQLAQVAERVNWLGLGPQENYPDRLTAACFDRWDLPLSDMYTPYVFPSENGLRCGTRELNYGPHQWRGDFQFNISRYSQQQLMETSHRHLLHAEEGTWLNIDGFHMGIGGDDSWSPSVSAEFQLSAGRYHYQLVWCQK
Chain of Melanocortin receptor 4 (P32245 whole entry): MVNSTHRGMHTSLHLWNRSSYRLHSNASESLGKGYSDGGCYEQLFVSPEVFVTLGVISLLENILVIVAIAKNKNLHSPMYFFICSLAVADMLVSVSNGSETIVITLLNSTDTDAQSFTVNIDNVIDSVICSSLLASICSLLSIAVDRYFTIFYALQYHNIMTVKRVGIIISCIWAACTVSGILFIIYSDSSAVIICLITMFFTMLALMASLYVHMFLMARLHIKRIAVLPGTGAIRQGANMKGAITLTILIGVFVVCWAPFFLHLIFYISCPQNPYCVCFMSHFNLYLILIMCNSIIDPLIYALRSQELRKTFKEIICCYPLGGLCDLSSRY
Chain of G-protein coupled receptor 55 (Q9Y2T6 whole entry): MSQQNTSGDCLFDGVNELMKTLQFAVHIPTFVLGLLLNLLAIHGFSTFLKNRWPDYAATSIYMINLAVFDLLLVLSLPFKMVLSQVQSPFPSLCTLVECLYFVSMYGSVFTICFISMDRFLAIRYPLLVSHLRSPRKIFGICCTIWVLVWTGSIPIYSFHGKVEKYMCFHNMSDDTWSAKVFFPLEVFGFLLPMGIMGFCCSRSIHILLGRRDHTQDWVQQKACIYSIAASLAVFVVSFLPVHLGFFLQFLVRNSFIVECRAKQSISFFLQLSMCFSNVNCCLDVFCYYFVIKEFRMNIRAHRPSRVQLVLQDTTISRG

As a reminder, the AC50 is the midpoint of the concentration-response curve, whichever way the signal moves. Broadly, the EC50 is the concentration needed to bring the measured effect to its halfway point. Regarding `Cc1ccc(O)c(C(=O)/C=C/c2ccc3c(c2)OCCO3)c1`, the half-maximal activity concentration (AC50) in series [1] is 1.14 µM (active); in the series on HeLa, 73.2 µM (active). Also, the EC50 at Melanocortin receptor 4 was > 89.2 µM (inactive).
In the case of `O=C(OC1CCN(c2ccc([N+](=O)[O-])cc2)CC1)c1ccccc1`, the AC50 on Cytochrome P450 2C19 is 0.794 µM (inconclusive); on Cytochrome P450 3A4 it was “inconclusive”.
What is called IC50 is the concentration that gives 50% inhibition. `CC(=O)OC(C)(C)/C=C/C(=O)[C@](C)(O)C1[C@H](O)C[C@@]2(C)C3CC=C4C(C[C@H](O)C(=O)C4(C)C)[C@]3(C)C(=O)C[C@]12C` (stereo partly drawn): the 50% inhibitory concentration (IC50) in the series on Jurkat is 3.03 µM (active); in series [2] it was > 80 µM (inactive).
Consider `C=CCN1C(=O)/C(=C\C=C2\N(C)c3ccccc3C2(C)C)SC1=S`, for which the EC50 in the series with BJ [3] is > 150 µM (not active); at Beta-galactosidase, > 40 µM (inactive); in the series on BJ [4], 42.9 µM (active); in the series on BJ [6], > 150 µM (not active); in [7], > 150 µM (not active); in series [8], > 32 µM (inactive). In addition, the IC50 in [5] is > 40 µM (not active); in series [9], 33.4 µM (active); in series [10] it was 11 µM (active); in series [11] it was 15.9 µM (inactive); in series [12] it was 8.19 µM (active).
For `CCCCOc1nc2nc(-c3ccco3)n(Cc3ccco3)c(N)c-2c1C#N`, the AC50 on Keap1/Nrf2 was > 52 µM (inactive).
On to `Cc1ccc(O)c2c1C1C=CCC1C(C(=O)O)N2` (stereo not drawn), for which the concentration for half-maximal inhibition (IC50) is 2.63 µM (active) in series [13], > 100 µM (not active) in series [14], > 100 µM (inactive) in series [15] and 86.4 µM (active) in series [16].
